Measured values taken from patent US10975355B2, “Controlled induction of human pancreatic progenitors produces functional beta-like cells” (THE REGENTS OF THE UNIVERSITY OF CALIFORNIA, priority 2015, dated 2021).

Legend:
Type in all cases: cell-based, human
[1] = tested on: MEL1 INS^GFP/W reporter cells (hESC); experiment: Flow cytometric analysis of pancreatic progenitor/endocrine markers in differentiating hESC spheres; conditions: for generation of PDX1+ cells over base media alone: group 1, factor alone days 6-8 (conditions 2 and 3), day 9.5
Protocol: Undifferentiated MEL1 INS^GFP/W reporter cells (Micallef et al, 2012) were maintained on mouse embryo fibroblast feeder layers (Millipore) in hESC media as described (Guo et al, 2013b). Suspension-based differentiations were carried out as follows. Briefly, confluent cultures were dissociated into single cell suspension by incubation with TrypLE (Gibco). Cells were counted and each well of 6-well low-adherence plates were seeded with 5.5×10^6 cells in 5.5 ml hES media supplemented with 10 ng/ml Activin A (R&D systems) and 10 ng/ml HeregulinB1 (Peprotech). Plates were placed on an orbital shaker at 100 rpm to induce sphere formation, as described (Schulz et al, 2012). To induce definitive endoderm differentiation, aggregates were collected 24 hours later in a 50 ml falcon tube, allowed to settle by gravity, washed once with PBS and re-suspended in d1 media (RPMI (Gibco) containing 0.2% FBS, 1:5000 ITS (Gibco), 100 ng/ml Activin A, and 50 ng/ml WNT3a (R&D systems)). Clusters from 3 wells were combined into 2 wells at this point and distributed into fresh low-attachment plates in 5.5 ml d1 media. Media thereafter was changed daily, by removing either 4.5 ml media (at the end of d1) or 5.5 ml media the following days and adding back 5.5 ml fresh media until day 9. After day 9, only 5 ml of media was removed and added daily.
Briefly, spheres were collected and allowed to settle by gravity. Clusters were washed once in PBS and dissociated by gentle pipetting after 12-15 minutes incubation in Accumax (innovative cell technologies). For sorting, cell suspension were filtered and re-suspended in FACS buffer consisting of phosphate-buffered saline (PBS) (UCSF cell culture facility) containing 2 mM EDTA (Ambion) and 1% BSA (Sigma). Dead cells were excluded by DAPI (Sigma) staining. Cell sorting was performed on a FACS Aria II (BD Bioscience). For flow-based analysis, dissociated cells were fixed with 4% paraformaldehyde (Electron Microscopy Science) for 15 minutes at room temperature, followed by two washes in PBS. Samples were either stored at 4 C or immediately stained with directly conjugated antibodies. Data analysis was performed with FlowJo software. Mouse Glucagon and mouse human C-peptide antibodies were conjugated in-house by the UCSF Antibody Core and/or with Antibody Labeling Kits (Molecular Probes) according to manufacturer's instructions. […]
To characterize the type of progenitors present in differentiating cultures at the point of endocrine induction, we performed a detailed time course analysis for the expression of pancreatic markers PDX1, NKX6.1, NEUROG3, GCG and INS (FIG. 7). […] Indeed, the expression of NEUROG3 can be detected as early as day 6, when NKX6.1 protein is absent from all cells (FIGS. 7A and B). […]

[2] = tested on: NEUROG3 and NKX2.2 mRNA transcripts; experiment: qPCR analysis of NEUROG3 and NKX2.2 transcripts at day 8 of differentiation; conditions: day 8, compared to RCN condition / during RCN or R treatment
Protocol: Total RNA was isolated with TRIZOL (Sigma) or micro/mini RNAeasy kit (Qiagen) and reverse transcribed using the iScript cDNA Kit (Bio-Rad) according to manufacturer's instructions. qPCR analysis was performed on an ABI 7900 HT Fast Real-Time PCR System (Applied Biosystems) and CFX Connect Real Time System (Biorad) using standard protocols. Primers were Taqman Probes (Applied Biosystems) and/or as published previously (Liu et al, 2014). P-values were calculated using a two-tailed student's t-test.
To characterize the type of progenitors present in differentiating cultures at the point of endocrine induction, we performed a detailed time course analysis for the expression of pancreatic markers PDX1, NKX6.1, NEUROG3, GCG and INS (FIG. 7). […] Indeed, the expression of NEUROG3 can be detected as early as day 6, when NKX6.1 protein is absent from all cells (FIGS. 7A and B). […] We thus expected that robust generation of PDX1+/NKX6.1+ progenitor cells prior to induction of NEUROG3 would allow efficient generation of beta-like cells in vitro. […] Spheres cultured under each condition were analyzed at day 9.5 by flow cytometry to quantify the expression of PDX1 and NKX6.1, and by conventional immunofluorescence analysis for NKX6.1 and NEUROG3 expression. […]

[3] = tested on: NEUROG3 expression in hESC-derived clusters; experiment: Immunofluorescence (whole mount / sections) for NEUROG3 protein in differentiated clusters; conditions: day 9.5, whole mount staining
Protocol: Spheres were fixed for 15-30 minutes at room temperature with 4% paraformaldehyde, followed by multiple washes in PBS. Whole mount staining was performed in suspension, by first blocking overnight at 4° C. in blocking buffer consisting of CAS-block (Invitrogen) with 0.2% TritonX (Fisher). Primary antibodies were incubated overnight at 4° C. in blocking buffer, followed by washes in PBS containing 0.1% Tween-20 (PBS-T, Sigma) and incubation in appropriate secondary antibodies diluted in PBS-T overnight at 4° C. The next day, clusters were washed in PBS-T followed by PBS and mounted with Vectashield (Vector) on glass slides. For sectioning of clusters, spheres were embedded in 2% Agar (Sigma), followed by dehydration, paraffin embedding, and sectioning. […]
To characterize the type of progenitors present in differentiating cultures at the point of endocrine induction, we performed a detailed time course analysis for the expression of pancreatic markers PDX1, NKX6.1, NEUROG3, GCG and INS (FIG. 7). […] Indeed, the expression of NEUROG3 can be detected as early as day 6, when NKX6.1 protein is absent from all cells (FIGS. 7A and B). […] Spheres cultured under each condition were analyzed at day 9.5 by flow cytometry to quantify the expression of PDX1 and NKX6.1, and by conventional immunofluorescence analysis for NKX6.1 and NEUROG3 expression. […]

CC1=C2C[C@H]3[C@@H](CC=C4C[C@@H](O)CC[C@@]43C)[C@@H]2CC[C@]12O[C@@H]1C[C@H](C)CN[C@H]1[C@H]2C [C, Cyclopamine]
generation of PDX1+ cells over base media alone [1]: did not result in enhanced generation of PDX1+ cells

O=C1O[C@H]([C@@H](O)CO)C(O)=C1O [Vitamin C]
NEUROG3 and NKX2.2 mRNA transcripts [2]: did not significantly lower

CC1=C(/C=C/C(C)=C/C=C/C(C)=C/C(=O)O)C(C)(C)CCC1 [retinoic acid]
PDX1 positive progenitors ([1]; group 1, exposure days 6-8, alone or combined (conditions 4, 5, 6), analysed day 9.5): > 88% | PDX1+ pancreatic progenitors generated ([1]; retinoic acid alone): more than 98%

B1: N: the BMP inhibitor Noggin (N) (protein, UniProt Q13253 28-232, looked up)
Noggin: QHYLHIRPAPSDNLPLVDLIEHPDPIFDPKEKDLNETLLRSLLGGHYDPGFMATSPPEDRPGGGGGAAGGAEDLAELDQLLRQRPSGAMPSEIKGLEFSEGLAQGKKQRLSKKLRRKLQMWLWSQTFCPVLYAWNDLGSRFWPRYVKVGSCFSKRSCSVPEGMVCKPSKSVHLTVLRWRCQRRGGQRCGWIPIQYPIISECKCSC
generation of PDX1+ cells over base media alone [1]: did not result in enhanced generation of PDX1+ cells | formation of NEUROG3 positive endocrine precursors [3]: induced
